Data reported in US20100144802A1, “Small Molecule Inhibitors for Immune Modulation” (priority 2007, published 2010).

Experiments:
macrophages = test: Macrophage intracellular cytokine production by flow cytometry; type: cell-based, human; conditions: 4 hrs
Protocol: PBMCs from normal human donors (n=5) were incubated for 24 hrs at 37° C., 5% CO2, in either medium (RPMI 1640+10% fetal bovine serum) or medium supplemented with 5 μM WP1066. Cells were then stained with fluorescent antibodies to CD11b and either CD80 or CD86 and analyzed by flow cytometry. Glioma-infiltrating microglia were purified from freshly resected GBM patient tumor tissue (n=3) and incubated in either medium or medium supplemented with WP1066 (1 μM). After incubation, microglia (CD11b^+/CD45^+) were double stained with fluorescent antibodies to CD11b and either CD80 or CD86, and analyzed by flow cytometry. Numbers in the upper right quadrant of each graph denote the percentage of CD11b^+ gated cells that express either CD80 or CD86. […] Cells were then labeled with CD11b/CD14 macrophage markers and stained and analyzed for intracellular cytokine production. Percentages of macrophages that were CD11b^+/CD14^+ and also positive for the respective cytokine were calculated by flow cytometry analysis. A scatter plot representative of all samples analyzed for macrophage intracellular cytokine production was determined with LPS-treated cells (circles) and WP1066-treated cells (diamonds). The black bars denote the mean values of each subgroup, p values determining statistical significance between LPS-stimulated groups and WP1066-stimulated groups were determined using Student's t test (NS, not statistically significant). […] Carboxyfluoroscein succinimidyl ester (CFSE)-labeled CD8^+ T cells isolated from newly diagnosed GBM patients were incubated with untreated autologous APCs (CD11b^+/CD14^+) and anti-CD3 antibody, with anti-CD3 antibody+anti-CD28 antibody, and with LPS-treated (5 μg/mL) autologous APCs or WP1066-treated (1 μM) autologous APCs. In all cases, cells were incubated for 4 days at 37° C., 5% CO2, followed by surface staining for T cell markers (CD3, CD8) and analysis by flow cytometry. The number on each plot indicates the percentage of CD8^+ gated cells that have undergone cell division via CFSE dilution. […] For (A-C), modified Percoll density gradient (1.083 g/mL) centrifugation was used to isolate PBMCs of both GBM patients and normal donors. CD8+ T cells were isolated by magnetic bead separation and then labeled with CFSE. Autologous APCs were purified from the above density gradient buffy-coat layer by negative selection, using a monocyte bead isolation kit and magnetic separation column. Purity of all cell populations was determined to be at least 97% by flow cytometry. Autologous microglia/macrophages from GBM patients were purified from freshly resected human glioma/brain tissue using a modified Percoll gradient isolation technique. All APCs were treated with the respective stimulants (control medium alone, LPS, or WP1066) for 24 hours and then washed prior to incubation with T cells in the proliferation assay. […] T cells from the same patients were isolated with human CD3 microbeads and a magnetic separation column, with the exception of one patient who lacked sufficient PBMCs for both monocyte and T cell isolations. Monocytes or T cells seeded at a density of 1×10^6 cells per well in 6-well culture plates and were incubated at 37° C., 5% CO2, with either the medium or medium supplemented with 5 μM WP1066. After 2 hours, monocytes and T cells were stimulated for 5 minutes with 2 μg/mL LPS and 5 μg/mL anti-CD3 antibody, respectively, in the presence or absence of WP1066. […]

[1] = test system: T cells isolated from peripheral blood of GBM patients; test: T cell proliferation (CFSE dilution) with treated antigen-presenting cells; type: cell-based, human; conditions: GBM patient T cells with treated macrophages/APCs; WP1066 1 μM, LPS 5 μg/mL, 4 days
Protocol: PBMCs from normal human donors (n=5) were incubated for 24 hrs at 37° C., 5% CO2, in either medium (RPMI 1640+10% fetal bovine serum) or medium supplemented with 5 μM WP1066. Cells were then stained with fluorescent antibodies to CD11b and either CD80 or CD86 and analyzed by flow cytometry. Glioma-infiltrating microglia were purified from freshly resected GBM patient tumor tissue (n=3) and incubated in either medium or medium supplemented with WP1066 (1 μM). After incubation, microglia (CD11b^+/CD45^+) were double stained with fluorescent antibodies to CD11b and either CD80 or CD86, and analyzed by flow cytometry. […] Cells were then labeled with CD11b/CD14 macrophage markers and stained and analyzed for intracellular cytokine production. Percentages of macrophages that were CD11b^+/CD14^+ and also positive for the respective cytokine were calculated by flow cytometry analysis. A scatter plot representative of all samples analyzed for macrophage intracellular cytokine production was determined with LPS-treated cells (circles) and WP1066-treated cells (diamonds). The black bars denote the mean values of each subgroup, p values determining statistical significance between LPS-stimulated groups and WP1066-stimulated groups were determined using Student's t test (NS, not statistically significant). […] Purity of all cell populations was determined to be at least 97% by flow cytometry. […]

CD80 and CD86 [2] = conditions: cited from earlier work
[3] = mouse, in vivo
Protocol: (§1) FIG. 1 depicts the novel small molecule inhibitor, WP1066, that inhibits Stat-3 activity and has significant central nervous system (CNS) and glioma tumor penetration in vitro and in vivo. FIG. 1A provides the chemical structure of WP1066. […] WP1066 was injected intraperitoneally (IP) at doses of 100 mg/kg every other day for two weeks in nude mice. Specifically, plasma, CNS tissue, and U87-MG flank tumors were harvested and, after extraction, were analyzed for WP1066 content using tandem liquid chromatography/mass spectrometry. […] Cells were stained with fluorescently-labeled anti-CD3 and anti-CD11b antibodies, and propidium iodide (PI) and analyzed by flow cytometry. Macrophages and T cells were gated on CD11b^+ and CD3^+ populations, respectively, and cell death (%) was quantified as CD11b^+PI^+ or CD3^+PI^+ populations in the respective plots. Plots represent the 5 μM maximum dose (clear histogram) compared to control untreated cells (shaded histogram) incubated under similar conditions.

[4] = Plasma concentration after oral administration; type: in vivo; conditions: mice
Text: Patients with malignant human gliomas have a preponderance of immunosuppressive cytokines, a lack of effector/activated T cells, enhanced regulatory T cells (Tregs), and inadequate antigen-presentation functional activity, contributing to their profound immunosuppression. Known immune stimulators within these patients are insufficient to overcome these influences. Therefore, we investigated whether a pharmacological derivative of the natural compound, caffeic acid (WP1066)(FIG. 1A), a small molecule inhibitor of Stat-3 activity, can (in physiologically relevant doses) attenuate these suppressed immune responses.

Stat-3 = target: T1, Stat-3 (Homo sapiens, UniProt P40763); test: Phosphorylated Stat-3 by intracellular staining and flow cytometry in PBMCs; type: cell-based; conditions: doses achievable in vivo (1 nM-5 μM)
T1 construct: normal donor peripheral blood mononuclear cells (PBMCs) were assessed for phosphorylated Stat-3 activity; endogenous in cells; host or cells: normal donor peripheral blood mononuclear cells (PBMCs)
T1 sequence (P40763 whole entry): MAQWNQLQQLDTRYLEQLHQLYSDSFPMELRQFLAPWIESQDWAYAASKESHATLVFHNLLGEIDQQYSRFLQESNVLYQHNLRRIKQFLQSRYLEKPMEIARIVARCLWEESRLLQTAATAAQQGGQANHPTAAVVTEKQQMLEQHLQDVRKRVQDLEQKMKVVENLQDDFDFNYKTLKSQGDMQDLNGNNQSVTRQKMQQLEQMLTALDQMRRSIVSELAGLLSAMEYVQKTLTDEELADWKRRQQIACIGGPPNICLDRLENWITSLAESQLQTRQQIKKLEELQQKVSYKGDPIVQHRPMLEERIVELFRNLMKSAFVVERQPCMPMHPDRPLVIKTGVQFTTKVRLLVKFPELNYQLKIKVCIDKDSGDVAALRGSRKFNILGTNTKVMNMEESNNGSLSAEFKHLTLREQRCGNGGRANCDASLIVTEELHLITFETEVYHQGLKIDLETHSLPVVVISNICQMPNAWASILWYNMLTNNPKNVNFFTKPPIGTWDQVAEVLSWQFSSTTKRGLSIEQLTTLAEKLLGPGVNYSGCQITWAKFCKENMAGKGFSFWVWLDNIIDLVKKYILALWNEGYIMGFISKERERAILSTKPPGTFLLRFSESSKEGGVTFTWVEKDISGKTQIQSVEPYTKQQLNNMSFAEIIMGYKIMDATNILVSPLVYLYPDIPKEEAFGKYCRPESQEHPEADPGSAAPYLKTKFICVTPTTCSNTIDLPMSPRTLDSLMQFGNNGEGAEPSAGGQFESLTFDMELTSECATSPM

normal donor PBMCs = test: Cell death (propidium iodide) of macrophages and T cells in PBMCs; type: cell-based, human; conditions: 1 nM-5 μM, 2 and 4 hours
Protocol: as §1

CD80 and CD86 [5] = test: Costimulatory molecule expression (CD80, CD86) by flow cytometry; type: cell-based, human
Protocol: (§2) PBMCs from normal human donors (n=5) were incubated for 24 hrs at 37° C., 5% CO2, in either medium (RPMI 1640+10% fetal bovine serum) or medium supplemented with 5 μM WP1066. Cells were then stained with fluorescent antibodies to CD11b and either CD80 or CD86 and analyzed by flow cytometry. Glioma-infiltrating microglia were purified from freshly resected GBM patient tumor tissue (n=3) and incubated in either medium or medium supplemented with WP1066 (1 μM). After incubation, microglia (CD11b^+/CD45^+) were double stained with fluorescent antibodies to CD11b and either CD80 or CD86, and analyzed by flow cytometry. Numbers in the upper right quadrant of each graph denote the percentage of CD11b^+ gated cells that express either CD80 or CD86. […] Cells were then labeled with CD11b/CD14 macrophage markers and stained and analyzed for intracellular cytokine production. Percentages of macrophages that were CD11b^+/CD14^+ and also positive for the respective cytokine were calculated by flow cytometry analysis. A scatter plot representative of all samples analyzed for macrophage intracellular cytokine production was determined with LPS-treated cells (circles) and WP1066-treated cells (diamonds). The black bars denote the mean values of each subgroup, p values determining statistical significance between LPS-stimulated groups and WP1066-stimulated groups were determined using Student's t test (NS, not statistically significant). […] Carboxyfluoroscein succinimidyl ester (CFSE)-labeled CD8^+ T cells isolated from newly diagnosed GBM patients were incubated with untreated autologous APCs (CD11b^+/CD14^+) and anti-CD3 antibody, with anti-CD3 antibody+anti-CD28 antibody, and with LPS-treated (5 μg/mL) autologous APCs or WP1066-treated (1 μM) autologous APCs. In all cases, cells were incubated for 4 days at 37° C., 5% CO2, followed by surface staining for T cell markers (CD3, CD8) and analysis by flow cytometry. […] Purity of all cell populations was determined to be at least 97% by flow cytometry. […]

[6] = test system: monocytes isolated from GBM patients; test: Immunoblotting of signaling proteins in GBM patient monocytes; type: cell-based, human; conditions: 5 μM
Protocol: (§3) To determine how WP1066 induces these potent immune responses, T cells and monocytes isolated from GBM patients were treated with WP1066 and subsequently lysed and analyzed by immunoblotting for critical signaling proteins. […] The tyrosine phosphorylation of Syk initiates downstream signaling events during human monocyte activation, whereas the phosphorylation of Tyr319 in Zap-70 plays a critical role in mediating T cell activation via signaling through the T cell receptor. Raeder, E. M. et al. J Immunol 163, 6785-93 (1999); Williams, B. L. et al. EMBO 18, 1832-1844 (1999). Both Syk and ZAP-70 can be phosphorylated through autophosphorylation and transphosphorylation. […] The tyrosine phosphorylation of critical signaling proteins induced/enhanced by WP1066 are likely pivotal to the WP1066-induced restoration of immune function in GBM patients and explains the mechanisms of potent immune activation.
as §2, with “APCs.” for “APCs. In all cases, cells were incubated for 4 days at 37° C., 5% CO2, followed by surface staining for T cell markers (CD3, CD8) and analysis by flow cytometry.”

T cells = test: Immunoblotting of signaling proteins in GBM patient T cells; type: cell-based, human; conditions: 5 μM
Protocol: as §3
PBMCs from normal human donors (n=5) were incubated for 24 hrs at 37° C., 5% CO2, in either medium (RPMI 1640+10% fetal bovine serum) or medium supplemented with 5 μM WP1066. Cells were then stained with fluorescent antibodies to CD11b and either CD80 or CD86 and analyzed by flow cytometry. […] After incubation, microglia (CD11b^+/CD45^+) were double stained with fluorescent antibodies to CD11b and either CD80 or CD86, and analyzed by flow cytometry. […] Cells were then labeled with CD11b/CD14 macrophage markers and stained and analyzed for intracellular cytokine production. Percentages of macrophages that were CD11b^+/CD14^+ and also positive for the respective cytokine were calculated by flow cytometry analysis. A scatter plot representative of all samples analyzed for macrophage intracellular cytokine production was determined with LPS-treated cells (circles) and WP1066-treated cells (diamonds). The black bars denote the mean values of each subgroup, p values determining statistical significance between LPS-stimulated groups and WP1066-stimulated groups were determined using Student's t test (NS, not statistically significant). […]

intracerebral B16 cells = test: Survival of C57BL/6J mice with established intracerebral tumors; type: in vivo
intracerebral B16 = test: Survival of nude mice with established intracerebral B16; type: in vivo
Foxp3 = test: Intracellular Foxp3 expression in iTreg differentiation and natural Tregs by flow cytometry; type: cell-based, C57BL/6J mice; conditions: 0, 0.1 and 1 μM, more than 96 hours
Protocol: CD4+CD25−CD62L^hi naïve T cells from C57BL/6J mice were stimulated by plate-bound anti-CD3 (2 μg/ml) and soluble anti-CD28 (2 μg/ml) antibodiesin the presence of TGF-β1 (1 ng/ml) plus hIL-2 (200 U/ml) with addition of different concentrations of WP1066 (0, 0.1, and 1 μM) for inducible Treg (iTreg) differentiation; CD4+CD25+ T cells (natural Tregs [nTreg]) were stimulated by plate-bound anti-CD3 (2 μg/ml) antibodies in the presence of hIL-2 (200 U/ml) with addition of different concentrations of WP1066 (0, 0.1, and 1 μM). More than 96 hours after stimulation, the cells were analyzed for intracellular Foxp3 expression using flow cytometry.

[7] = test system: tumor cell types, including malignant gliomas; conditions: variety of tumor cell types; cited from earlier work
[8] = normal donors and GBM patients, 5 μM

lipopolysaccharide [LPS, reference compound]
IL-1β levels compared with WP1066 (macrophages; LPS 5 μg/mL): significantly higher levels | T cell proliferation [1]: unable to induce any T cell proliferation | up regulating costimulatory molecules on microglia isolated directly from GBM patients (CD80 and CD86 [2]): totally insufficient

C[C@H](NC(=O)/C(C#N)=C/c1cccc(Br)n1)c1ccccc1 [WP1066]
uptake of the compound by tumors versus other tissue [3]: higher drug content than any other tissue | central nervous system (CNS) concentrations ([3]; nude): 0.185 µM | concentrations in tumor ([3]; nude): 1070 nM | concentrations per gram of tumor ([3]; nude): 362 μg/gram | concentrations within orthotopic gliomas ([3]; nude): 1070 nM | plasma concentrations [4]: > 2000 nM | inhibition of Stat-3 within immune cells (Stat-3): inhibit Stat-3 | cell viability (normal donor PBMCs): not compromised | CD80 and CD86 on tumor-infiltrating microglia/macrophages from GBM patients (CD80 and CD86 [5]; 1 μM): capable of upregulating CD80 and CD86 | CD80 and CD86 on normal donor PBMCs (CD80 and CD86 [5]; 5 μM, 24 hrs): capable of upregulating CD80 and CD86 | up regulation of costimulation in human monocytes (CD80 and CD86 [5]; incubated with IL-10 and TGF-β (data not shown)): can be achieved | IL-2 induction from macrophages (macrophages; [8]): induce | IL-4 induction from macrophages (macrophages; [8]): induce | IL-12 induction from macrophages (macrophages; [8]): induce | IL-15 induction from macrophages (macrophages; [8]): induce | T cell proliferation [1]: potently induced T cell proliferation | tyrosine phosphorylation in monocytes and T cells ([6]; proteins of 70 to 75 KDa and 50 to 60 KDa, also T cells): induced or enhanced | levels of p57/p59-Hck ([6]; monocytes): increased | phospho-p72Syk (Tyr352) ([6]; monocytes): induced | total protein level of Syk ([6]; monocytes): didn't affect | levels of p56-Lck (T cells): increased | phospho-ZAP-70 (Tyr319) (T cells): induced | total protein level of ZAP-70 (T cells): markedly decreased | immunological memory on rechallenge (intracerebral B16 cells; animals surviving longer than 78 days, tumor cells into contralateral hemisphere): minimal immunological memory was induced | anti-tumor efficacy (survival) (intracerebral B16 cells; established intracerebral B16 cells, oral gavage, compared with B16EGFRvIII model): Identical anti-tumor efficacy | efficacy after in vivo depletions of CD4+ and CD8+ T cells (intracerebral B16 cells; established intracerebral syngeneic murine models): abrogates the efficacy | clinical effectiveness (survival) in immune incompetent background (intracerebral B16): abrogates the clinical effectiveness | Foxp3 expression in natural Tregs (Foxp3): downregulates Foxp3 expression | Foxp3 induction in peripheral T cells (Foxp3; iTreg differentiation): inhibits Foxp3 induction | proapoptotic activity [7]: proapoptotic activity
